Source: ChEMBL document CHEMBL1158215, “Three new cytotoxic sesterterpenes from the marine sponge Hyrtios cf. erectus” (J Nat Prod, 1996)
In brackets after ≈: the same amount, converted by molar mass.

Test system: P388
Experiment: Cytotoxicity against mouse P388 cells
Assay type: functional, cell-based

Question: How did the IC50 turn out when `CC(=O)O[C@@H]1C[C@@H]2[C@@]3(C)CCCC(C)(C)[C@@H]3CC[C@@]2(C)[C@@H]2C[C@H](O)C3=CC(=O)O[C@@H]3[C@@]12C` was run?
Answer: 2.1 µg/mL (≈ 4.72 µM)

Question: How did the IC50 turn out when `CC1(C)CCC[C@]2(C)[C@H]3C[C@@H](O)[C@]4(C)[C@H]5OC(=O)C=C5[C@@H](O)C[C@H]4[C@]3(C)CC[C@@H]12` was run?
Answer: 0.4 µg/mL (≈ 0.994 µM)

Question: `CC(=O)OC[C@]1(C)CCC[C@]2(C)[C@H]3CC[C@@]4(C)[C@@H](CC=C5C(=O)O[C@@H](O)[C@@H]54)[C@]3(C)CC[C@@H]12` was tested. Which IC50 did it give?
Answer: 0.9 µg/mL (≈ 2.02 µM)
